This experiment concerns the target GpIIb/IIIa receptor (Homo sapiens, UniProt P05106+P08514). The experiment can be described thus: GpIIb/IIIa fibrinogen ELISA (inhibition of the fibrinogen-GpIIb/IIIa interaction). Format: binding. The following applies: isolated activated GpIIb/IIIa receptor coated at 2 μg/ml; fibrinogen ligand, 1 hour incubation; OD at 405 nm. How it is done: Microtitre plates were coated overnight with 2 μg/ml isolated activated GpIIb/IIIa receptor. After the unbound receptor had been removed by several washing steps, the surface of the plate was blocked with 1% casein and washed again. The test substance was added at the necessary concentrations, the plates were subsequently incubated for 10 minutes while shaking in a linear shaker. The natural ligand of the GpIIb/IIIa receptor fibrinogen was added thereto. After incubating for 1 hour, unbound fibrinogen was removed by several washing steps and bound fibrinogen was determined in an ELISA reader by determining the change in optical density at 405 nm caused by a peroxidase conjugated monoclonal antibody. Inhibition of the fibrinogen-GpIIb/IIIa interaction leads to low optical densities. The IC50 value was determined by means of a concentration-effect curve.
The GpIIb/IIIa fibrinogen ELISA is a modification of the assay which is described in the following references:
Nachman, R. L. & Leung, L. L. K. (1982): Complex formation of platelet membrane glycoproteins IIb and IIIa with fibrinogen. J. Clin. Invest. 69: 263-269.
Wright, P. S. et al. […]; An echistatin C-terminal peptide activated GpIIb/IIIa binding to fibrinogen, fibronectin, vitronectin and collagen type I and type IV. Biochem. J. 293: 262-267.

From US5972947A, “Oxazolidinone derivatives, processes for the production thereof and pharmaceutical agents containing these compounds” (Roche Diagnostics GmbH, priority 1995, dated 1999) come the findings set out here.

For orientation: IC50 means the concentration that inhibits the measured activity by half.

Sequence of GpIIb/IIIa receptor (P08514 32-887 limits assumed): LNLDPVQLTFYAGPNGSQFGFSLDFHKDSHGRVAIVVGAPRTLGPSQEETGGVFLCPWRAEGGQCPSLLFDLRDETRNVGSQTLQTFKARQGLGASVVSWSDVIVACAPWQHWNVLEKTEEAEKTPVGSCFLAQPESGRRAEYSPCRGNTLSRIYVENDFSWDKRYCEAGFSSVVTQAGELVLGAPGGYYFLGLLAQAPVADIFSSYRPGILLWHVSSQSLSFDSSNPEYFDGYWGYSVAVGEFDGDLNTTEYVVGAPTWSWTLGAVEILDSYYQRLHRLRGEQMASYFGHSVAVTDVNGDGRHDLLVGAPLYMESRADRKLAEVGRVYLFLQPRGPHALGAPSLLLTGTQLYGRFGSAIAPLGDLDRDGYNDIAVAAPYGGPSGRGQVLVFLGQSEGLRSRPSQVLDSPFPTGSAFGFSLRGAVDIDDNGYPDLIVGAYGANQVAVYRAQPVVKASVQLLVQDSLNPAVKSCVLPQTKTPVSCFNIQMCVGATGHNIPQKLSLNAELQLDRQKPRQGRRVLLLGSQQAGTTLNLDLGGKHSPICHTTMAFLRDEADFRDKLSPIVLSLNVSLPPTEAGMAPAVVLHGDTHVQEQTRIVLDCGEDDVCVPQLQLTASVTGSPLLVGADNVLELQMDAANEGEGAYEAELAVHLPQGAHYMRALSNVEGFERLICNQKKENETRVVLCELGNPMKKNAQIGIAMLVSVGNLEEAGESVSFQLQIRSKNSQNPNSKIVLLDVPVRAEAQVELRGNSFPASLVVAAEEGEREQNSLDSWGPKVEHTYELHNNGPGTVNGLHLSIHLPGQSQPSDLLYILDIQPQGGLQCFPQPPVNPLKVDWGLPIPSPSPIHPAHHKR
Sequence of GpIIb/IIIa receptor (P08514 891-1039 partner limits assumed): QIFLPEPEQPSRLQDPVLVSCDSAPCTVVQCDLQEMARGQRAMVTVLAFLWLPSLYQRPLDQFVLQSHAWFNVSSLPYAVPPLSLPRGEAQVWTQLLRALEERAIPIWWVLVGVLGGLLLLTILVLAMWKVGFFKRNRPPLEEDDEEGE
Sequence of GpIIb/IIIa receptor (P05106 27-788): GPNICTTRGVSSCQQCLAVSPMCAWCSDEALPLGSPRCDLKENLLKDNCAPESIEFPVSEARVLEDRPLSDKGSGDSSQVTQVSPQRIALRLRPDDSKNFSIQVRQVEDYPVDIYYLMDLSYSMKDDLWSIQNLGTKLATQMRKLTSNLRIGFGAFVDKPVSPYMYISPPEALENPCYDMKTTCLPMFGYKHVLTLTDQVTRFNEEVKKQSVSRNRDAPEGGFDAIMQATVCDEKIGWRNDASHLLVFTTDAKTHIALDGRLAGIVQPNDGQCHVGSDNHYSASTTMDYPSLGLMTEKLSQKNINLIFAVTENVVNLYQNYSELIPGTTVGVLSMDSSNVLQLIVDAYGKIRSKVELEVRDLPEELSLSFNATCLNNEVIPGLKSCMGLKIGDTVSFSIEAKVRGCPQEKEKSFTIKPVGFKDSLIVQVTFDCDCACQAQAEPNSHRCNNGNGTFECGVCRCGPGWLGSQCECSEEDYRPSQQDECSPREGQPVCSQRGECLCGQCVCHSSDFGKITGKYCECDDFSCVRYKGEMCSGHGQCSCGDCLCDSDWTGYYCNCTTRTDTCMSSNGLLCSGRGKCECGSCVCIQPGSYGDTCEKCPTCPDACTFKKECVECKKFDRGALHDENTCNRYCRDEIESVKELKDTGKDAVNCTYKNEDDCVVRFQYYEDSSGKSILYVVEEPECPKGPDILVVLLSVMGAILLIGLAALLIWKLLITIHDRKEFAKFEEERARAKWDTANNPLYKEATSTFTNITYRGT

In the case of `O=C(O)C1CCN(CC2CN(C3CCN(c4ccncc4)CC3)C(=O)O2)CC1` (racemic) [Example 2, 1-[(rac]-2-Oxo-3-(3,4,5,6-tetrahydro-2H-[1,4']bipyridinyl-4-yl)-oxazolidin-5-ylmethyl]-piperidine-4-carboxylic acid], the IC50 was below 300 nM.

`O=C(O)C=C1CCN(CC2CN(C3CCN(c4ccncc4)CC3)C(=O)O2)CC1` (racemic) [Example 3, {1-[(rac)-2-Oxo-3-(3,4,5,6-tetrahydro-2H-[1,4']bipyridinyl-4yl)-oxazolidin-5-ylmethyl]-piperidin-4-ylidene}-acetic acid] returned an IC50 of 1400 nM. This lies in the single-digit micromolar range.

Molecule `O=C(O)C1CCN(CC2OC(=O)N(C3CCN(c4ccncc4)CC3)C2c2ccccc2)CC1` (stereo not drawn) [10 a)] gave an IC50 of 300 nM. This IC50 is about 4.7-fold lower than that of the molecule before.

In turn, `O=C(O)C1CCC(O)(CC2CN(C3CCN(c4ccncc4)CC3)C(=O)O2)CC1` (stereo not drawn) [10 c)] yielded an IC50 below 300 nM.

On to `O=C(O)C1CCN(C[C@H]2CN(C3CCN(c4ccncc4)CC3)C(=O)O2)CC1` [Example 1, 1-[(5S)-2-oxo-3-(3,4,5,6-tetrahydro-2H-[1,4']bipyridinyl-4-yl)-oxazolidin-5-ylmethyl]-piperidine-4-carboxylic acid], for which the half-inhibitory concentration (IC50) was below 300 nM.

`O=C(O)CC1(O)CCN(CC2CN(C3CCN(c4ccncc4)CC3)C(=O)O2)CC1` (stereo not drawn) [Example 5, {4-Hydroxy-1-[2-oxo-3-(3,4,5,6-tetrahydro-2H-[1,4']bipyridinyl-4-yl)-oxazolidin-5-ylmethyl]-piperidin-4-yl}acetic acid] yielded a 50% inhibitory concentration (IC50) of 1000 nM.

With `CC1C(CN2CCC(C(=O)O)CC2)OC(=O)N1C1CCN(c2ccncc2)CC1` (stereo not drawn) [Example 7, 1-[4-Methyl-2-oxo-3-(3,4,5,6-tetrahydro-2H-[1,4']bipyridinyl-4-yl)-oxazolidin-5-ylmethyl]-piperidine-4-carboxylic acid], the IC50 is below 300 nM.

The molecule `O=C(O)C1CCN(CC2CN(C3CCN(c4ccncn4)CC3)C(=O)O2)CC1` (stereo not drawn) [Example 8, 1-[2-Oxo-3-(1-pyrimidin-4-yl-piperidin-4-yl)-oxazolidin-5-ylmethyl]-piperidine-4-carboxylic acid] showed an IC50 of 300 nM.

`O=C(O)C1CCN(CC2CN(C3CCN(c4ccnc(NCc5ccccc5)n4)CC3)C(=O)O2)CC1` (stereo not drawn) [Example 9, 1-{3-[1-(2-Benzylamino-pyrimidin-4-yl)-piperidin-4-yl]-2-oxo-oxazolidin-5-ylmethyl}-piperidine-4-carboxylic acid] registered an IC50 of 70 nM. Compared with the last molecule, the IC50 is about 4.3-fold lower.

As for `C[C@]1(CN2CCC(C(=O)O)CC2)CN(C2CCN(c3ccncc3)CC2)C(=O)O1` [No. 78, (5S)-1-[5-Methyl-2-oxo-3-(3,4,5,6-tetrahydro-2H-[1,4']bipyridinyl-4-yl)-oxazolidin-5-ylmethyl]-piperidine-4-carboxylic acid], the half-maximal inhibitory concentration (IC50) amounted to 600 nM.

In turn, `O=C(O)C1CCN(CC2OC(=O)N(C3CCN(c4ccncc4)CC3)C2c2cccc(C(F)(F)F)c2)CC1` (stereo not drawn) [No. 79, 1-[2-Oxo-3-(3,4,5,6-tetrahydro-2H-[1,4']bipyridinyl-4-yl)-4-(3-trifluoromethylphenyl)-oxazolidin-5-ylmethyl]-piperidine-4-carboxylic acid] returned an IC50 of 1300 nM.

For the molecule `O=C(O)C1CCN(CC2OC(=O)N(C3CCN(c4ccncc4)CC3)C2c2ccc(Cl)cc2)CC1` (stereo not drawn) [No. 80, 1-[4-(4-Chlorophenyl)-2-oxo-3-(3,4,5,6-tetrahydro-2H-[1,4']bipyridinyl-4-yl)-oxazolidin-5-ylmethyl]-piperidine-4-carboxylic acid], the half-inhibitory concentration (IC50) was 500 nM.
